From PubChem BioAssay (NCI)
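Five concentrations, 48 hours, 96-well plates. GI50: concentration for 50% inhibition of growth. TGI denotes the concentration required for complete inhibition of growth.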

Key:
Test in all cases: inhibition of tumour cell growth, NCI panel, 48 h
[1] = tested on: NCI-H226 lung
[2] = tested on: NCI-H23 lung
[3] = tested on: NCI-H460 lung
[4] = tested on: NCI-H522 lung
[5] = tested on: OVCAR-3 ovarian
[6] = tested on: OVCAR-4 ovarian
[7] = tested on: OVCAR-5 ovarian
[8] = tested on: OVCAR-8 ovarian
[9] = tested on: PC-3 prostate
[10] = tested on: RPMI-8226 leukemia
[11] = tested on: RXF 393 renal
[12] = tested on: SF-268 CNS
[13] = tested on: SF-295 CNS
[14] = tested on: SF-539 CNS
[15] = tested on: SK-MEL-2 melanoma
[16] = tested on: SK-MEL-28 melanoma
[17] = tested on: SK-MEL-5 melanoma
[18] = tested on: SK-OV-3 ovarian
[19] = tested on: SN12C renal
[20] = tested on: SNB-19 CNS
[21] = tested on: SNB-75 CNS
[22] = tested on: SR leukemia
[23] = tested on: SW-620 colon
[24] = tested on: T-47D breast
[25] = tested on: TK-10 renal
[26] = tested on: U251 CNS
[27] = tested on: UACC-257 melanoma
[28] = tested on: UACC-62 melanoma
[29] = tested on: UO-31 renal

CCOc1ccc(/C=N/NC(=O)Cn2nc(Cc3ccccc3)c3onc(C)c3c2=O)cc1
GI50 [1]: 4.76 µM | TGI [1]: > 24.7 µM | GI50 [2]: 30.4 µM | TGI [2]: > 100 µM | GI50 [3]: > 100 µM | TGI [3]: > 100 µM | GI50 [4]: > 31.3 µM | TGI [4]: > 87.2 µM | GI50 [5]: > 100 µM | TGI [5]: > 100 µM | GI50 [6]: 2.93 µM | TGI [6]: > 100 µM | GI50 [7]: > 100 µM | TGI [7]: > 100 µM | GI50 [8]: > 100 µM | TGI [8]: > 100 µM | GI50 [9]: > 100 µM | TGI [9]: > 100 µM | GI50 [10]: > 100 µM | TGI [10]: > 100 µM | GI50 [11]: 5.82 µM | TGI [11]: 22.5 µM | GI50 [12]: 15.7 µM | TGI [12]: > 100 µM | GI50 [13]: 14.7 µM | TGI [13]: > 61 µM | GI50 [14]: 19.5 µM | TGI [14]: > 64.5 µM | GI50 [15]: 15.5 µM | TGI [15]: 33.1 µM | GI50 [16]: > 100 µM | TGI [16]: > 100 µM | GI50 [17]: > 100 µM | TGI [17]: > 100 µM | GI50 [18]: 13.8 µM | TGI [18]: > 66.8 µM | GI50 [19]: > 100 µM | TGI [19]: > 100 µM | GI50 [20]: 16.3 µM | TGI [20]: > 52.4 µM | GI50 [21]: 2.61 µM | TGI [21]: 13.8 µM | GI50 [22]: > 100 µM | TGI [22]: > 100 µM | GI50 [23]: > 100 µM | TGI [23]: > 100 µM | GI50 [24]: > 20.4 µM | TGI [24]: > 100 µM | GI50 [25]: > 40.2 µM | TGI [25]: > 66.2 µM | GI50 [26]: 9.01 µM | TGI [26]: > 100 µM | GI50 [27]: > 100 µM | TGI [27]: > 100 µM | GI50 [28]: > 19.9 µM | TGI [28]: > 100 µM | GI50 [29]: > 100 µM | TGI [29]: > 100 µM
